Literature values as cited in patent US20090170823A1, “Dosage Regimens and Pharmaceutical Compositions and Packages for Emergency Contraception” (Duramed Pharmaceuticals, Inc., priority 2007, published 2009).

Settings: relative to 30 μg ethinyl estradiol; see EP 0 253 607

Compound	amount roughly equivalent to 30 μg of ethinyl estradiol
C[C@]12CC[C@@H]3c4ccc(O)cc4CC[C@H]3[C@@H]1CC[C@@H]2O [17β-estradiol]	~2,000 μg
C#C[C@]1(O)CC[C@H]2[C@@H]3CCc4cc(OC)ccc4[C@H]3CC[C@@]21C [mestranol]	~60 µg
